Measurements as given in paper PMC9737772, “Synthesis and Anti-Inflammatory Activity of 1-Methylhydantoin Cinnamoyl Imides” (Molecules, 2022).
Entries after “also recorded” stand apart in the source; their conditions may differ.

Key:
[1] = Cytotoxicity determination by CCK-8; assay type: cell-based; conditions: mouse, RAW264.7 macrophage cells, RAW264.7 cells
Procedure: (§1) RAW264.7 mouse macrophages were purchased from Zhongqiao Xinzhou and cultured in DMEM supplemented with 10% fetal bovine serum (FBS) and 1% penicillin/streptomycin in a 37 °C, 5% CO2 incubator. The cells were passaged every two days to maintain the monolayer cell state.
The CCK-8 kit was used to determine the cytotoxicity of the target compounds (1–5) to RAW264.7 cells. The well-growing cells were subcultured in a 96-well plate. After the cells adhered to the wall, the experimental group was added with a medium containing different concentrations of compounds to make the final concentration reach 5, 10, 20, 40, 80, 160 and 320 μmoL/L. The control group was added with a medium without compound, and a blank group without cells or compound was set at the same time. After culturing in a constant temperature incubator for a period, CCK-8 solution was added to produce yellow formazan product. The OD value was measured by the microplate reader at the detection wavelength of 450 nm, and the cell survival rate was calculated. The cell survival rate formula is as follows:(1) Cell Survival Rate %=ODe−ODb/ODc−ODb×100% where ODe was the OD value of the experimental group, ODb was the OD value of the blank group, and ODc was the OD value of the control group.

[2] = tested on: TNF-α secretion in RAW264.7 cells induced by LPS; experiment: TNF-α content in supernatant of LPS-induced RAW264.7 cells (ELISA); assay type: cell-based, mouse
Procedure: Tumor necrosis factor-α (TNF-α) is a pleiotropic proinflammatory cytokine, known for its proinflammatory activity. To explore the inhibitory effects of five compounds on TNF-α, ELISA was used to determine the content of inflammatory factor TNF-α in the supernatant of RAW264.7 cells stimulated by LPS. RAW264.7 cells secreted a large amount of inflammatory-factor TNF-α 24 h after LPS (1 ug/mL) induction.
as §1
(§2) The RAW264.7 cells in the logarithmic growth phase were seeded in a 24-well plate and placed in a 37 °C, 5% CO2 constant temperature incubator for culture. After 24 h, the culture medium was discarded. The blank group was added with 10% FBS DMEM 1 mL. The group was added with a medium containing 1 ug/mL LPS, and the experimental group was added with LPS and different concentrations of the target compound to make the final volume 1 mL. After 24 h of culture, the cell supernatant was taken and stored in a refrigerator at −20 °C for later use. The Griess kit was used to determine the concentration of NO in the supernatant, and a double antibody sandwich ELISA kit was used to detect TNF-α and IL-1β.

[3] = tested on: IL-1β secretion in RAW264.7 cells induced by LPS; experiment: IL-1β content in supernatant of LPS-induced RAW264.7 cells (ELISA); assay type: cell-based, mouse
Source text: Interleukin-1β (IL-1β) has strong proinflammatory activity and can induce the production of a variety of proinflammatory mediators, such as cytokines and chemokines. In this work, the ELISA method was used to determine the IL-1β content in the supernatant of RAW264.7 cells stimulated by LPS to evaluate the effects of five compounds on IL-1β secretion.
as §1, §2

[4] = molecular target: T1, ovine cyclooxygenase-2 (COX-2); experiment: In vitro COX inhibition assay (enzyme immunoassay kit), COX-2; assay type: biochemical; conditions: ovine COX-2, enzyme immunoassay kit
T1 construct: purchased Cayman Chemical 560131
Procedure: The inhibition ability of 1-methylhydantoin cinnamic imides to ovine cyclooxygenase-1 (COX-1) and cyclooxygenase-2 (COX-2) was determined using an enzyme immunoassay kit. […] The Cell Counting Kit-8 (CCK-8) method was used to detect the cytotoxicity of the five target compounds (1–5) on lipopolysaccharide (LPS)-induced RAW264.7 cells. When the concentrations of compounds 1, 3 and 5 are lower than 20 μM, and when the concentrations of compounds 2 and 4 are lower than 80 μM, the survival rate of RAW264.7 cells is more than 95%, which has no obvious damage to cell survival and can be used for subsequent in vitro anti-inflammatory activity experiments to provide the basis.
The inhibition ability of ovine COX-1 and COX-2 was determined using an enzyme immunoassay kit (560131, Cayman Chemical, Ann Arbor, MI, USA) following the manufacturer’s instructions.

[5] = tested on: NO release from RAW264.7 cells induced by LPS; experiment: NO content in supernatant of LPS-induced RAW264.7 cells (Griess); assay type: cell-based, mouse; conditions: for inhibition of NO production: 80 μM, LPS 1 ug/mL, 24 h, RAW264.7; for inhibition of NO release: LPS-stimulated RAW264.7, concentration not stated
Procedure: NO is an important indicator to predict the anti-inflammatory effects of drugs. It has been identified as a proinflammatory cytokine in various inflammatory diseases. NO can induce vasodilation, recruit neutrophils and […] the activation of mast cells, leading to tissue damage. It is essential to reduce the production of NO for inflammatory release. To explore the anti-inflammatory effects of the five compounds, the LPS-induced inflammatory response of RAW264.7 cells was carried out. The NO content in the cell supernatant was measured by the Griess method to evaluate the inhibitory effects of these five compounds on NO production.
as §1, §2

[6] = 80 μM, LPS 1 ug/mL, 24 h, RAW264.7, vs model group
[7] = LPS-stimulated RAW264.7, concentration not stated
[8] = 80 μM, LPS, 24 h, RAW264.7, vs model group

T1 sequence (P35354 18-604): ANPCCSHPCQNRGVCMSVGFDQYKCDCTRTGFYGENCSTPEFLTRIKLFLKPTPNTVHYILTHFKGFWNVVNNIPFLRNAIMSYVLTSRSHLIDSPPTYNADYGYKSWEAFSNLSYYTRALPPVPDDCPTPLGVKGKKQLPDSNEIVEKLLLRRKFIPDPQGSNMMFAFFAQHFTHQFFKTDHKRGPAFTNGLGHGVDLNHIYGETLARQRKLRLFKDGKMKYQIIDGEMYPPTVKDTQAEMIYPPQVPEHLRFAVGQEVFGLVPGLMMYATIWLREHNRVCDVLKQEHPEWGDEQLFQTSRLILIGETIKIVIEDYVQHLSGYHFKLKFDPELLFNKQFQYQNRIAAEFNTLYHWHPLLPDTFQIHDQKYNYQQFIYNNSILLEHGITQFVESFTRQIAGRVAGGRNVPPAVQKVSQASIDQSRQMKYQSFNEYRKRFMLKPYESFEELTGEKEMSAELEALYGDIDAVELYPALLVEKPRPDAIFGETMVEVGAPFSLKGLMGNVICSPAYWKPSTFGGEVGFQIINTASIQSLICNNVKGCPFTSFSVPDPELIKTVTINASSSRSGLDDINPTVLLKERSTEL

IC50 [4] [µM] | Compound | CC50 [1] [µM] | inhibition of TNF-α secretion ([2]; 20 μM, LPS 1 ug/mL, 24 h, RAW264.7, vs model group) | inhibition of TNF-α secretion [2, 6] | inhibition of TNF-α secretion [2, 7] | inhibition of IL-1β secretion ([3]; 20 μM, LPS, 24 h, RAW264.7, vs model group) | inhibition of IL-1β secretion [3, 8] | inhibition of IL-1β secretion [3, 7] | inhibition of NO production [5] | inhibition of NO release [5]
204 ± 10 | CN1CC(=O)N(C(=O)/C=C/c2ccco2)C1=O [Compound 2, (E)-3-(3-(furan-2-yl)acryloyl)-1-methylimidazolidine-2,4-dione] | 329 | no obvious inhibitory effect on TNF-α | significantly reduce the secretion of TNF-α | reduce the secretion of TNF-α | no obvious inhibitory effect on IL-1β | significant inhibitory effect on the secretion of IL-1β | reduce the secretion of TNF-α and IL-1β | showed a significant effect on NO | significantly inhibit the release of NO
126 ± 12 | CC(=O)Oc1ccc(/C=C/C(=O)N2C(=O)CN(C)C2=O)cc1 [Compound 4, (E)-4-(3-(3-methyl-2,5-dioxoimidazolidin-1-yl)-3-oxoprop-1-en-1-yl)phenyl acetate] | 302 |  | significantly reduce the secretion of TNF-α; also recorded: most significant | reduce the secretion of TNF-α; also recorded: significantly inhibited the secretion of inflammatory factors TNF-α |  | significant inhibitory effect on the secretion of IL-1β | reduce the secretion of TNF-α and IL-1β; also recorded: significantly inhibited the secretion of inflammatory factors TNF-α and IL-1β | showed a significant effect on NO | significantly inhibit the release of NO; also recorded: reduced the release of NO
